Assay results as given in patent US20170305857A1, “N-ACYLPIPERIDINE ETHER TROPOMYOSIN-RELATED KINASE INHIBITORS” (Pfizer Limited, priority 2014, published 2017).

molecular target: T1, recombinant His-tagged cytoplasmic domains of TRKA receptor (NTRK1, PV3144, aa 441-796) (Homo sapiens, UniProt P04629); experiment: Isolated TRK enzyme assay (HTRF KinEASE-TK, PV3144 TrkA enzyme assay); type: biochemical; conditions: 4 nM enzyme, 40 uM ATP, 35 min, arithmetic mean where more than one reading
T1 construct: aa 441-796; His; purchased Invitrogen PV3144
T1 sequence (P04629 441-796): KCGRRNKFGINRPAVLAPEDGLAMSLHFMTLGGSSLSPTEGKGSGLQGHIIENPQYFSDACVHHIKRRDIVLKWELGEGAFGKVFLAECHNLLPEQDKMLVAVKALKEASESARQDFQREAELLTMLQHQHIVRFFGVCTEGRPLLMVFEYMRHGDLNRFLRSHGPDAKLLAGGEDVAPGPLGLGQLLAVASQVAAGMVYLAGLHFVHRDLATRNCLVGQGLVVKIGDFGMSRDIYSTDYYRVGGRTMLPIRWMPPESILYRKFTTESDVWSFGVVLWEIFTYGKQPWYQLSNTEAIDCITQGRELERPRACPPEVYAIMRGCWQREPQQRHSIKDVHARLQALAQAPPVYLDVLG
Outline: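 Enzyme and ATP were preincubated with compound for 20 min at room temperature in buffer with 10 mM MgCl and 2 mM DTT. TK-substrate-Biotin was then added (1 uM final) and the reaction run for an enzyme-specific optimized time. Phosphorylation was read by HTRF, and IC50 values came from sigmoid fits of percent inhibition normalized to plate controls, averaged over replicate readings.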

| SMILES | IC50 [nM] |
| --- | --- |
| NC(=O)c1cc(-c2cnn(C[C@@H](O)CO)c2)ccc1OC1CCN(C(=O)Cc2ccc(OC(F)(F)F)cc2)CC1 [Example 122] | 4.4 |
| Cc1nn(C[C@@H](O)CO)c(C)c1-c1ccc(OC2CCN(C(=O)Cc3ccc(OC(F)(F)F)cc3)CC2)c(C(N)=O)c1 [Example 123] | 3.8 |
| Cc1nn(C[C@H](O)CO)c(C)c1-c1ccc(OC2CCN(C(=O)Cc3ccc(OC(F)(F)F)cc3)CC2)c(C(N)=O)c1 [Example 124] | 7.4 |
| NC(=O)c1cc(-c2cn(C[C@H](O)CO)cn2)ccc1OC1CCN(C(=O)Cc2ccc(OC(F)(F)F)cc2)CC1 [Example 125] | 6.6 |
| NC(=O)c1cc(-c2cn(C[C@@H](O)CO)cn2)ccc1OC1CCN(C(=O)Cc2ccc(OC(F)(F)F)cc2)CC1 [Example 126, 5-{1-[(2R)-2,3-dihydroxypropyl]-1H-imidazol-4-yl}-2-[(1-{[4-(trifluoromethoxy)phenyl]acetyl}piperidin-4-yl)oxy]benzamide] | 2.9 |
| NC(=O)c1cc(-c2c[nH]cn2)ccc1OC1CCN(C(=O)Cc2ccc(OC(F)(F)F)cc2)CC1 [Example 127, 5-(1H-imidazol-4-yl)-2-[(1-{[4-(trifluoromethoxy)phenyl]acetyl}piperidin-4-yl)oxy]benzamide] | 5.5 |
| CNC(=O)Cn1cnc(-c2ccc(OC3CCN(C(=O)Cc4ccc(OC(F)(F)F)cc4)CC3)c(C(N)=O)c2)c1 [Example 128, 5-{1-[2-(methylamino)-2-oxoethyl]-1H-imidazol-4-yl}-2-[(1-{[4-(trifluoromethoxy)phenyl]acetyl}piperidin-4-yl)oxy]benzamide] | 6.1 |
| NC(=O)c1cc(-c2cnn(CC3(O)COC3)c2)ccc1OC1CCN(C(=O)Cc2ccc(OC(F)(F)F)cc2)CC1 [Example 129, 5-{1-[(3-hydroxyoxetan-3-yl)methyl]-1H-pyrazol-4-yl}-2-[(1-{[4-(trifluoromethoxy)phenyl]acetyl}piperidin-4-yl)oxy]benzamide] | 6.9 |
| NC(=O)c1cc(-c2cnn(CCO)c2)ccc1OC1CCN(C(=O)Cc2ccc(OC3CC3)cc2)CC1 [Example 130, 2-[(1-{[4-(cyclopropyloxy)phenyl]acetyl}piperidin-4-yl)oxy]-5-[1-(2-hydroxyethyl)-1H-pyrazol-4-yl]benzamide] | 5.5 |
| C[C@@H](CO)n1cc(-c2ccc(OC3CCN(C(=O)Cc4ccc(OC(F)(F)F)cc4)CC3)c(C(N)=O)c2)cn1 [Example 131, 5-{1-[(2S)-1-hydroxypropan-2-yl]-1H-pyrazol-4-yl}-2-[(1-{[4-(trifluoromethoxy)phenyl]acetyl}piperidin-4-yl)oxy]benzamide] | 4.4 |
| C[C@H](CO)n1cc(-c2ccc(OC3CCN(C(=O)Cc4ccc(OC(F)(F)F)cc4)CC3)c(C(N)=O)c2)cn1 [Example 132] | 5.1 |
| C[C@@H](O)Cn1cc(-c2ccc(OC3CCN(C(=O)Cc4ccc(OC(F)(F)F)cc4)CC3)c(C(N)=O)c2)cn1 [Example 133] | 2.6 |
| C[C@H](O)Cn1cc(-c2ccc(OC3CCN(C(=O)Cc4ccc(OC(F)(F)F)cc4)CC3)c(C(N)=O)c2)cn1 [Example 134] | 2.5 |
| CC(C)(O)Cn1cc(-c2ccc(OC3CCN(C(=O)Cc4ccc(OC(F)(F)F)cc4)CC3)c(C(N)=O)c2)cn1 [Example 135] | 3.9 |
| NC(=O)c1cc(-c2c[nH]nn2)ccc1OC1CCN(C(=O)Cc2ccc(OC(F)(F)F)cc2)CC1 [Example 136, 5-(1H-1,2,3-triazol-4-yl)-2-((1-(2-(4-(trifluoromethoxy)phenyl)acetyl)piperidin-4-yl)oxy)benzamide] | 5.3 |
| NCCn1cc(-c2ccc(OC3CCN(C(=O)Cc4ccc(OC(F)(F)F)cc4)CC3)c(C(N)=O)c2)cn1 [Example 138, 5-[1-(2-aminoethyl)-1H-pyrazol-4-yl]-2-[(1-{[4-(trifluoromethoxy)phenyl]acetyl}piperidin-4-yl)oxy]benzamide] | 7 |
| Cc1nc(-c2cnc(OC3CCN(C(=O)Cc4ccc(OC(F)(F)F)cc4)CC3)c(C(N)=O)c2)c[nH]1 [Example 139, 5-(2-methyl-1H-imidazol-4-yl)-2-[(1-{[4-(trifluoromethoxy)phenyl]acetyl}piperidin-4-yl)oxy]pyridine-3-carboxamide] | 10.7 |
| Cn1cc(-c2ccc(OC3CCN(C(=O)Nc4ccc(OC(F)(F)F)cc4F)CC3)c(C(N)=O)c2)cn1 [Example 140, 4-(2-carbamoyl-4-(1-methyl-1H-pyrazol-4-yl)phenoxy)-N-(2-fluoro-4-(trifluoromethoxy)phenyl)piperidine-1-carboxamide] | 10.3 |

| SMILES | IC50 [nM] |
| --- | --- |
| NC(=O)c1cc(-c2c[nH]cn2)cnc1O[C@H]1CCN(C(=O)Cc2ccc(OC(F)(F)F)cc2)C[C@H]1F [Example 141, 2-{[(3R,4S)-3-fluoro-1-{[4-(trifluoromethoxy)phenyl]acetyl}piperidin-4-yl]oxy}-5-(1H-imidazol-4-yl)pyridine-3-carboxamide] | 1.4 |
| Cc1nc(C)c(-c2ccc(OC3CCN(C(=O)Cc4ccc(OC(F)(F)F)cc4)CC3)c(C(N)=O)c2)s1 [Example 143, 5-(2,4-dimethyl-1,3-thiazol-5-yl)-2-[(1-{[4-(trifluoromethoxy)phenyl]acetyl}piperidin-4-yl)oxy]benzamide] | 16.5 |
| N#Cc1cc(-c2ccc(OC3CCN(C(=O)Cc4ccc(OC(F)(F)F)cc4)CC3)c(C(N)=O)c2)cs1 [Example 144, 5-(5-cyanothiophen-3-yl)-2-[(1-{[4-(trifluoromethoxy)phenyl]acetyl}piperidin-4-yl)oxy]benzamide] | 16.7 |
| Cn1cncc1-c1ccc(OC2CCN(C(=O)Cc3ccc(OC(F)(F)F)cc3)CC2)c(C(N)=O)c1 [Example 145, 5-(1-methyl-1H-imidazol-5-yl)-2-[(1-{[4-(trifluoromethoxy)phenyl]acetyl}piperidin-4-yl)oxy]benzamide] | 17.1 |
| Cc1nc(-c2ccc(OC3CCN(C(=O)Cc4ccc(OC(F)(F)F)cc4)CC3)c(C(N)=O)c2)c[nH]1 [Example 146, 5-(2-methyl-1H-imidazol-4-yl)-2-[(1-{[4-(trifluoromethoxy)phenyl]acetyl}piperidin-4-yl)oxy]benzamide] | 11.6 |
| Cc1nnc(-c2ccc(OC3CCN(C(=O)Cc4ccc(OC(F)(F)F)cc4)CC3)c(C(N)=O)c2)s1 [Example 147, 5-(5-methyl-1,3,4-thiadiazol-2-yl)-2-[(1-{[4-(trifluoromethoxy)phenyl]acetyl}piperidin-4-yl)oxy]benzamide] | 12.6 |
| Cn1ccc(-c2ccc(OC3CCN(C(=O)Cc4ccc(OC(F)(F)F)cc4)CC3)c(C(N)=O)c2)n1 [Example 148, 5-(1-methyl-1H-pyrazol-3-yl)-2-[(1-{[4-(trifluoromethoxy)phenyl]acetyl}piperidin-4-yl)oxy]benzamide] | 12.6 |
| Cn1cc(-c2ccc(OC3CCN(C(=O)Cc4ccc(OC(F)(F)F)cc4)CC3)c(C(N)=O)c2)c(C#N)n1 [Example 149, 5-(3-cyano-1-methyl-1H-pyrazol-4-yl)-2-[(1-{[4-(trifluoromethoxy)phenyl]acetyl}piperidin-4-yl)oxy]benzamide] | 13.7 |
| NC(=O)c1cc(-c2cccnc2)ccc1OC1CCN(C(=O)Cc2ccc(OC(F)(F)F)cc2)CC1 [Example 150, 5-(pyridin-3-yl)-2-[(1-{[4-(trifluoromethoxy)phenyl]acetyl}piperidin-4-yl)oxy]benzamide] | 11 |
| NC(=O)c1cc(-c2ccc(CO)cc2)cnc1OC1CCN(C(=O)Cc2ccc(OC(F)(F)F)cc2)CC1 [Example 151, 5-[4-(hydroxymethyl)phenyl]-2-[(1-{[4-(trifluoromethoxy)phenyl]acetyl}piperidin-4-yl)oxy]pyridine-3-carboxamide] | 12 |
| C[C@H](O)c1ccc(-c2cnc(OC3CCN(C(=O)Cc4ccc(OC(F)(F)F)cc4)CC3)c(C(N)=O)c2)cc1 [Example 152, 5-{4-[(1S)-1-hydroxyethyl]phenyl}-2-[(1-{[4-(trifluoromethoxy)phenyl]acetyl}piperidin-4-yl)oxy]pyridine-3-carboxamide] | 12.7 |
| CCc1ccc(CC(=O)N2CCC(Oc3ccc(-c4cnn(C)c4)cc3C(N)=O)CC2)cc1 [Example 153, 2-({1-[(4-ethylphenyl)acetyl]piperidin-4-yl}oxy)-5-(1-methyl-1H-pyrazol-4-yl)benzamide] | 19.3 |
| Cn1ncc(-c2cnc(O[C@@H]3CCN(C(=O)Cc4ccc(OC(F)(F)F)cc4)C[C@@H]3F)c(C(N)=O)c2)n1 [Example 154, 2-{[(3S,4R)-3-fluoro-1-{[4-(trifluoromethoxy)phenyl]acetyl}piperidin-4-yl]oxy}-5-(2-methyl-2H-1,2,3-triazol-4-yl)pyridine-3-carboxamide] | 2.93 |
| Cn1cc(-c2cnc(O[C@@H]3CCN(C(=O)Cc4ccc(OC(F)(F)F)cc4)C[C@@H]3F)c(C(N)=O)c2)nn1 [Example 155, 2-[((3S,4R)-3-fluoro-1-{[4-(trifluoromethoxy)phenyl]acetyl}piperidin-4-yl)oxy]-5-(1-methyl-1H-1,2,3-triazol-4-yl)pyridine-3-carboxamide] | 2.45 |
| Cn1cc(-c2cc(C(N)=O)c(O[C@H]3CCN(C(=O)Cc4ccc(OC(F)(F)F)cc4)C[C@H]3F)nn2)cn1 [Example 156, 3-{[(3R,4S)-3-fluoro-1-{[4-(trifluoromethoxy)phenyl]acetyl}piperidin-4-yl]oxy}-6-(1-methyl-1H-pyrazol-4-yl)pyridazine-4-carboxamide] | 4.16 |
| Cn1cc(-c2cc(C(N)=O)c(O[C@@H]3CCN(C(=O)Cc4ccc(OC(F)(F)F)cc4)C[C@@H]3F)nn2)cn1 [Example 157, 3-{[(3S,4R)-3-fluoro-1-{[4-(trifluoromethoxy)phenyl]acetyl}piperidin-4-yl]oxy}-6-(1-methyl-1H-pyrazol-4-yl)pyridazine-4-carboxamide] | 7.24 |
| Cn1cnc(-c2ccc(O[C@H]3[C@@H]4CO[C@H]3CN(C(=O)Cc3ccc(OC(F)(F)F)cc3)C4)c(C(N)=O)c2)c1 [Example 158, 5-(1-methyl-1H-imidazol-4-yl)-2-{[(1S,5S,8S)-3-{[4-(trifluoromethoxy)phenyl]acetyl}-6-oxa-3-azabicyclo[3.2.1]oct-8-yl]oxy}benzamide] | 18.4 |
